Reference: patent US10189809B2, “SGC stimulators” (Ironwood Pharmaceuticals, Inc., priority 2010, dated 2019)

Tests used:
[1] = molecular target: soluble guanylate cyclase (sGC) (Homo sapiens (Human), UniProt Q02108+Q02153); test: sGC-HEK-cGMP assay run with SNP incubation (HEK WC assay); type: cell-based; conditions: for Emax at 10 µM: read-out: HEK WC Assay (% Emax at 10 μM/with 10 uM SNP); for Emax at 30 µM: read-out: HEK WC Assay (% Emax at 30 μM/with 10 uM SNP)
Method in brief: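 HEK293 cells with endogenous sGC were pretreated with 0.5 mM IBMX for 15 min at 37 °C, then exposed to test compound plus sodium nitroprusside for 10 min at 37 °C.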

[2] = molecular target: T1, Human soluble guanylate cyclase enzyme (hsGC) (Homo sapiens (Human), UniProt Q02108+Q02153); test: Purified human sGC enzyme activity assay; type: biochemical; conditions: without the addition of SNP; for sGC Enzyme (fold increase at 30 μM): 30 μM compound
Method in brief: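 Purified human sGC (5 ng) incubated 30 min at 37° C with compound at 10 or 30 μM final in pH 8.0 Tris with 300 μM GTP, 2 mM MgCl2, 2 mM DTT and 1 mM IBMX, then stopped with cold methanol. cGMP quantified against a standard curve. Specific activity (nmol cGMP/mg sGC/min) expressed as fold-change over DMSO control.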

[3] = molecular target: T1, Human soluble guanylate cyclase enzyme (hsGC); test: Purified human sGC enzyme synergy assay in the presence of 1 μM sodium nitroprusside (SNP); type: biochemical; conditions: 30 μM compound, with the addition of SNP
Method in brief: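 Purified human sGC (5 ng) incubated 30 min at 37 °C with compounds at 10 or 30 μM, 1 μM sodium nitroprusside, 300 μM GTP and 1 mM IBMX in Tris pH 8.0 with MgCl2/DTT. cGMP quantified against a standard curve, and specific activity expressed as fold-change over DMSO control.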

Thoracic aortic rings = test: Alternative thoracic aortic rings assay (Example 19b; resting tension as 100% inhibition); set-up: species or system rat; conditions: Table 10A; for Percent Relaxation at 1 μM: printed as number or words instead of code; for inhibition at 3 µM / inhibition at 10 µM / inhibition at 1 µM / EC50: Rattus norvegicus; for inhibition at 3 µM: read-out: Percent Relaxation at 3 μM; for inhibition at 10 µM: read-out: Percent Relaxation at 10 μM; for inhibition at 1 µM: read-out: Percent Relaxation at 1 μM; for EC50: read-out: Aortic Ring EC50
Method in brief: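 Aortic rings (~2 mm) from male Sprague-Dawley rats (275-299 g) held at 1.0 g resting tension in Krebs-Henseleit at 37 °C under 95% O2/5% CO2, then precontracted with 100 ng/mL phenylephrine. Compounds in DMSO added cumulatively; relaxation recorded by force transducer and EC50 taken from concentration-response curves.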

Sequence of soluble guanylate cyclase (sGC) (Q02153 whole entry): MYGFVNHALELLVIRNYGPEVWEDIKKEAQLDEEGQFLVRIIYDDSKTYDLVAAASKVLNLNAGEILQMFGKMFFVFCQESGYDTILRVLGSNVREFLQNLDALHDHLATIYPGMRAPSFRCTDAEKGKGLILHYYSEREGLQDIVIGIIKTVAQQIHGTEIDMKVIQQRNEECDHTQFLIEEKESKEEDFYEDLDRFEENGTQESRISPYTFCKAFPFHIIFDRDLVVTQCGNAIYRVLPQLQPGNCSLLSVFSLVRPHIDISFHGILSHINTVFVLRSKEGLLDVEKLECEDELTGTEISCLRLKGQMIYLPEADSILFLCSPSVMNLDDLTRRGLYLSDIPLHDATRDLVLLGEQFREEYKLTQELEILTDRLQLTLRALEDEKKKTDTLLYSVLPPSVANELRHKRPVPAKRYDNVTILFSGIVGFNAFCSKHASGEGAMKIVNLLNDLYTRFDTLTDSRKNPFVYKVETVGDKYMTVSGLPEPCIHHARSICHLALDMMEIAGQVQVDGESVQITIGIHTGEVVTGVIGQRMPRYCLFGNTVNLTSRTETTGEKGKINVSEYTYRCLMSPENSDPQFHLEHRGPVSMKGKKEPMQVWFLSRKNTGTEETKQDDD
Sequence of soluble guanylate cyclase (sGC) (Q02108 whole entry): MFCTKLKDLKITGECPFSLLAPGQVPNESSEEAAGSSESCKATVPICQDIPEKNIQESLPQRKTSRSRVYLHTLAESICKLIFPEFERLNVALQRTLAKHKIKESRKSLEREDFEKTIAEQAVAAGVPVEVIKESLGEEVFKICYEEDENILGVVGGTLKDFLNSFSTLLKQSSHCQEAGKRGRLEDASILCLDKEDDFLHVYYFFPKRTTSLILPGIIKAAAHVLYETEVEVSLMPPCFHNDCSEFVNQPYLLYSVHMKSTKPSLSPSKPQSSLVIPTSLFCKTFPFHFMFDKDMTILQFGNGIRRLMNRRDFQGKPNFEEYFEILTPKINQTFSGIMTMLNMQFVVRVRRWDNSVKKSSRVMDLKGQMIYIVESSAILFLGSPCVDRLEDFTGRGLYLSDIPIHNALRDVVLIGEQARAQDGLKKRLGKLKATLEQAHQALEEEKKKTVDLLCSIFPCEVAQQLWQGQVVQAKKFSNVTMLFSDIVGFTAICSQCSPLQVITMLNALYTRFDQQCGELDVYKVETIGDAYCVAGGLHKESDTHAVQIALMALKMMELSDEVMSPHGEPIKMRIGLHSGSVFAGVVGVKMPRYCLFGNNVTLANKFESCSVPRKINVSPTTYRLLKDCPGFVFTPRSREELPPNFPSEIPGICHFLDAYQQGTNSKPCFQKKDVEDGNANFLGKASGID
T1 sequence (Q02153 whole entry): as the sequence (Q02153 whole entry) above
T1 sequence (Q02108 whole entry): as the sequence (Q02108 whole entry) above

Compound	Emax at 10 µM [1] [%]	Emax at 30 µM [1] [%]	sGC Enzyme (fold increase at 30 μM) [2]	sGC Enzyme (fold increase at 30 μM with SNP) [3]	Percent Relaxation at 1 μM (Thoracic aortic rings)	inhibition at 3 µM (Thoracic aortic rings; 3 μM) [%]	inhibition at 10 µM (Thoracic aortic rings) [%]	inhibition at 1 µM (Thoracic aortic rings) [%]	EC50 (Thoracic aortic rings) [nM]	sGC Enzyme (fold increase at 10 μM) ([2]; 10 μM compound)	Percent Relaxation at 3 μM (Thoracic aortic rings; 3 μM, printed as words instead of code)
COC(=O)N(C)c1c(N)nc(-c2cc(-c3ccsc3)n(Cc3ccccc3F)n2)nc1N [Compound I-72]	20 to 40	20 to 40	D (D = 10 to <30 fold increase)	D (D = 10 to <30 fold increase)	3.1	20 to 40	60 to 80	–	–	–	–
N#Cc1cnc(-c2cc(-c3ccon3)n(Cc3ccccc3F)n2)nc1O [Compound I-110]	60 to 80	60 to 80	B (B = 2 to <5 fold increase)	C (C = 5 to <10 fold increase)	–	60 to 80	80 to 100	40 to 60	< 2000	–	–
COC(=O)N(C)c1c(N)nc(-c2cc(-c3ncco3)n(Cc3ccccc3F)n2)nc1N [Compound I-100]	20 to 40	40 to 60	B (B = 2 to <5 fold increase)	C (C = 5 to <10 fold increase)	–	60 to 80	100 to 120	20 to 40	< 2000	–	–
COC(=O)N(C)c1cnc(-c2cc(-c3ccon3)n(Cc3ccccc3F)n2)nc1N [Compound I-105]	80 to 100	100 to 120	C (C = 5 to <10 fold increase)	C (C = 5 to <10 fold increase)	–	80 to 100	100 to 120	60 to 80	< 2000	–	–
Nc1ccnc(-c2cc(-c3cocn3)n(Cc3ccccc3F)n2)n1 [Compound I-98]	20 to 40	20 to 40	B (B = 2 to <5 fold increase)	D (D = 10 to <30 fold increase)	–	100 to 120	100 to 120	60 to 80	< 2000	–	–
COC(=O)Nc1c(N)nc(-c2cc(-c3ncco3)n(Cc3ccccc3F)n2)nc1N [Compound I-99]	20 to 40	40 to 60	B (B = 2 to <5 fold increase)	C (C = 5 to <10 fold increase)	–	20 to 40	80 to 100	0 to 10	< 2000	–	–
CC(C)(C)OC(=O)Nc1cnc(-c2cc(-c3ccon3)n(Cc3ccccc3F)n2)nc1N [Compound I-106]	–	–	D (D = 10 to <30 fold increase)	D (D = 10 to <30 fold increase)	–	60 to 80	100 to 120	20 to 40	< 2000	–	–
Nc1ccnc(-c2cc(-c3ccon3)n(Cc3ccccc3F)n2)n1 [Compound I-97]	40 to 60	40 to 60	D (D = 10 to <30 fold increase)	D (D = 10 to <30 fold increase)	–	100 to 120	100 to 120	80 to 100	< 2000	–	–
COC(=O)Nc1c(N)nc(-c2cc(-c3ccsc3)n(Cc3ccccc3F)n2)nc1N [Compound I-71]	10 to 20	10 to 20	C (C = 5 to <10 fold increase)	D (D = 10 to <30 fold increase)	No relaxation	10 to 20	60 to 80	–	–	–	–
CN(C(=O)OC(C)(C)C)c1cnc(-c2cc(-c3ccon3)n(Cc3ccccc3F)n2)nc1N [Compound I-115]	80 to 100	60 to 80	C (C = 5 to <10 fold increase)	D (D = 10 to <30 fold increase)	–	40 to 60	80 to 100	20 to 40	2000 to 4000	–	–
Fc1ccccc1Cn1nc(-c2ncccn2)cc1-c1cscn1 [Compound I-85]	–	100 to 120	C (C = 5 to <10 fold increase)	D (D = 10 to <30 fold increase)	–	80 to 100	100 to 120	60 to 80	< 2000	–	–
Fc1ccccc1Cn1nc(-c2ncccn2)cc1-c1ccccn1 [Compound I-75]	10 to 20	20 to 40	B (B = 2 to <5 fold increase)	D (D = 10 to <30 fold increase)	–	20 to 40	60 to 80	10 to 20	2000 to 4000	A (A = no increase to <2 fold increase)	–
COC(=O)N(C)c1c(N)nc(-c2cc(-c3ccccc3)n(Cc3ccccc3F)n2)nc1N [Compound I-84]	–	–	C (C = 5 to <10 fold increase)	B (B = 2 to <5 fold increase)	no relaxation	–	20 to 40	–	8000 to 12000	–	no relaxation
Nc1ccnc(-c2cc(-c3ncco3)n(Cc3ccccc3F)n2)n1 [Compound I-87]	60 to 80	100 to 120	D (D = 10 to <30 fold increase)	D (D = 10 to <30 fold increase)	–	80 to 100	100 to 120	60 to 80	< 2000	–	–
Nc1ccnc(-c2cc(-c3nccs3)n(Cc3ccccc3F)n2)n1 [Compound I-86]	40 to 60	60 to 80	C (C = 5 to <10 fold increase)	D (D = 10 to <30 fold increase)	–	80 to 100	100 to 120	40 to 60	< 2000	–	–
Nc1ccnc(-c2cc(-c3cscn3)n(Cc3ccccc3F)n2)n1 [Compound I-92]	20 to 40	20 to 40	B (B = 2 to <5 fold increase)	D (D = 10 to <30 fold increase)	–	80 to 100	–	60 to 80	< 2000	–	–
Nc1ccnc(-c2cc(-c3ccccc3)n(Cc3ccccc3F)n2)n1 [Compound I-82]	10 to 20	10 to 20	C (C = 5 to <10 fold increase)	C (C = 5 to <10 fold increase)	–	20 to 40	80 to 100	10 to 20	4000 to 8000	–	–
CC(=O)Nc1cnc(-c2cc(-c3ccon3)n(Cc3ccccc3F)n2)nc1N [Compound I-112, N-(4-amino-2-(1-(2-fluorobenzyl)-5-(isoxazol-3-yl)-1H-pyrazol-3-yl)pyrimidin-5-yl)acetamide]	100 to 120	80 to 100	C (C = 5 to <10 fold increase)	D (D = 10 to <30 fold increase)	–	> 120	100 to 120	80 to 100	< 2000	–	–
Nc1nc(-c2cc(-c3ccon3)n(Cc3ccccc3F)n2)ncc1-c1ccncc1 [Compound I-102]	40 to 60	20 to 40	B (B = 2 to <5 fold increase)	C (C = 5 to <10 fold increase)	–	60 to 80	80 to 100	20 to 40	< 2000	–	–
